Data as given in publication PMC10412597, “Small molecule branched-chain ketoacid dehydrogenase kinase (BDK) inhibitors with opposing effects on BDK protein levels” (Nature Communications, 2023).

Tests used:
Set-up in all cases: Invitrogen kinase panel, per cent inhibition of kinase activity
MAPK12 = MAPK12 (Homo sapiens, UniProt P53778); settings: 10 µM, inhibitor
Method in brief: (§1)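 These are secondary selectivity data for BDK inhibitors, taken from kinase panels.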

ROCK1 = ROCK1 (Homo sapiens, UniProt Q13464); settings: 10 µM, inhibitor
Chain of ROCK1 (Q13464 whole entry): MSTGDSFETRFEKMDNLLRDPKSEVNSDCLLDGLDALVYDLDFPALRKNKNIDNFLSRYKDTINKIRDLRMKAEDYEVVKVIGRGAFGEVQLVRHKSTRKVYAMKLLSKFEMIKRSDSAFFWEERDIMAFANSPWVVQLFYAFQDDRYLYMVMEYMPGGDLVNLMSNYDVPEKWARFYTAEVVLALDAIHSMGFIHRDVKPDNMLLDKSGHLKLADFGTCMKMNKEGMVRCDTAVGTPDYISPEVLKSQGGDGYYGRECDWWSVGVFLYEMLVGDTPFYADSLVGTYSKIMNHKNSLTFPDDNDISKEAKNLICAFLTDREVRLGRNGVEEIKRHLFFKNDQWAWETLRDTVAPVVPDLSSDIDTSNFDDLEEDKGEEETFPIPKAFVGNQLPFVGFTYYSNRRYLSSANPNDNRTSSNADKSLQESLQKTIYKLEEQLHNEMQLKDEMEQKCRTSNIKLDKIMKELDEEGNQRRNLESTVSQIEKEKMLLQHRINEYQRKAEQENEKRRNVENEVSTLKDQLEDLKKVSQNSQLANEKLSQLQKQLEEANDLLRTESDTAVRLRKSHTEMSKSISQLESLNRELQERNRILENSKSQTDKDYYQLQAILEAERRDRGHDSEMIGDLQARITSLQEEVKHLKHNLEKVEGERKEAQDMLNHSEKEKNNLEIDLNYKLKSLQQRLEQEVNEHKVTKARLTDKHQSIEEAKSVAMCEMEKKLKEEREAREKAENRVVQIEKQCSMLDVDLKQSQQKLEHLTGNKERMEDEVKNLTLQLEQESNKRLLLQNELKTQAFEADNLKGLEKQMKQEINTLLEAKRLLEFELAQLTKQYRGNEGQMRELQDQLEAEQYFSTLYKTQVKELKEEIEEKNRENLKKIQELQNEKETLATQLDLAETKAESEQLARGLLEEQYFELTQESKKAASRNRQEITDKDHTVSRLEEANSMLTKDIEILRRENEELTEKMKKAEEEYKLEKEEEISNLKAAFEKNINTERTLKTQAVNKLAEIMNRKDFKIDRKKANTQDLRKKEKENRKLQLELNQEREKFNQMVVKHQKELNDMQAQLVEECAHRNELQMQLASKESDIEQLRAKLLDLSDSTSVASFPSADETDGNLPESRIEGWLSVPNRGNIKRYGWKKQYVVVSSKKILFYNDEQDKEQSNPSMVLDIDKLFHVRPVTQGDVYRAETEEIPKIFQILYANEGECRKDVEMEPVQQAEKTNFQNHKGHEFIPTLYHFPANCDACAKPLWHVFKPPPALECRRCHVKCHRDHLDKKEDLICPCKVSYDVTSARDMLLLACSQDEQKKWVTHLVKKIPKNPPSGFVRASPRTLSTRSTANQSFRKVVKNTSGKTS
Experimental: (§2) To discover a potent and selective BDK inhibitor, a subset of the Pfizer compound collection was screened. […] Off target activity was assessed in both CEREP and kinase panels (Supplementary Tables 2, 3).

TEK = TEK (Homo sapiens, UniProt Q02763); settings: 10 µM, inhibitor
Chain of TEK (Q02763 whole entry): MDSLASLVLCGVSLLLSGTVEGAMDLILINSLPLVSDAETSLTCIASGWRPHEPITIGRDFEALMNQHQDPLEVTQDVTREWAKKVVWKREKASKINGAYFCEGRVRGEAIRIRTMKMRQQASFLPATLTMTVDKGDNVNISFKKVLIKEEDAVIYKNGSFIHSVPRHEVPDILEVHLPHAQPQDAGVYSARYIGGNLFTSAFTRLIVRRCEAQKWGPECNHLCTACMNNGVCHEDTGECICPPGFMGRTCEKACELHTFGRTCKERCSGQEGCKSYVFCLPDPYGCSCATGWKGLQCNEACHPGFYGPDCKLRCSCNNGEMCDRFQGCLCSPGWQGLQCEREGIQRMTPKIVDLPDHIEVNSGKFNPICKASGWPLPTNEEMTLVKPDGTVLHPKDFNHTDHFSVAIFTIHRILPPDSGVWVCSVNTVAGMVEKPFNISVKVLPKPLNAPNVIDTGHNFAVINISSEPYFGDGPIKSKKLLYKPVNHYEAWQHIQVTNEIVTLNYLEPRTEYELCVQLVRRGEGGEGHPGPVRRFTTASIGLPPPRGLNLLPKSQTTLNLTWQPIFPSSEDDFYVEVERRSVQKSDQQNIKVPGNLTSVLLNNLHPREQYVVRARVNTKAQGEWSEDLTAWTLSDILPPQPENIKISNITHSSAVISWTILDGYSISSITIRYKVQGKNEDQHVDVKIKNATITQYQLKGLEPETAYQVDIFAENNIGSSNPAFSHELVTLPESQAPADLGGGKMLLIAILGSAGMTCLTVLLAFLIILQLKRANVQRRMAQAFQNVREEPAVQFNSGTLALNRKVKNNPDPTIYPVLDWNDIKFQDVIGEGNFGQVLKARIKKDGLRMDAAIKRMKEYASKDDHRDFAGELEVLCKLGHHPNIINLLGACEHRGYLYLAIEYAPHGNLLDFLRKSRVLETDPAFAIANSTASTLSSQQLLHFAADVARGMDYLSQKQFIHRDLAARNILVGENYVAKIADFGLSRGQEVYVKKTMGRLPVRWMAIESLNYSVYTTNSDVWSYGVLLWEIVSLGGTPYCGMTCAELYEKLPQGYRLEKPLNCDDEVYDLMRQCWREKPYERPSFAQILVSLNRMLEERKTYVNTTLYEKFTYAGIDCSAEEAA
Experimental: as §2

NTRK1 = NTRK1 (Homo sapiens, UniProt P04629); settings: 10 µM, inhibitor
Chain of NTRK1 (P04629 whole entry): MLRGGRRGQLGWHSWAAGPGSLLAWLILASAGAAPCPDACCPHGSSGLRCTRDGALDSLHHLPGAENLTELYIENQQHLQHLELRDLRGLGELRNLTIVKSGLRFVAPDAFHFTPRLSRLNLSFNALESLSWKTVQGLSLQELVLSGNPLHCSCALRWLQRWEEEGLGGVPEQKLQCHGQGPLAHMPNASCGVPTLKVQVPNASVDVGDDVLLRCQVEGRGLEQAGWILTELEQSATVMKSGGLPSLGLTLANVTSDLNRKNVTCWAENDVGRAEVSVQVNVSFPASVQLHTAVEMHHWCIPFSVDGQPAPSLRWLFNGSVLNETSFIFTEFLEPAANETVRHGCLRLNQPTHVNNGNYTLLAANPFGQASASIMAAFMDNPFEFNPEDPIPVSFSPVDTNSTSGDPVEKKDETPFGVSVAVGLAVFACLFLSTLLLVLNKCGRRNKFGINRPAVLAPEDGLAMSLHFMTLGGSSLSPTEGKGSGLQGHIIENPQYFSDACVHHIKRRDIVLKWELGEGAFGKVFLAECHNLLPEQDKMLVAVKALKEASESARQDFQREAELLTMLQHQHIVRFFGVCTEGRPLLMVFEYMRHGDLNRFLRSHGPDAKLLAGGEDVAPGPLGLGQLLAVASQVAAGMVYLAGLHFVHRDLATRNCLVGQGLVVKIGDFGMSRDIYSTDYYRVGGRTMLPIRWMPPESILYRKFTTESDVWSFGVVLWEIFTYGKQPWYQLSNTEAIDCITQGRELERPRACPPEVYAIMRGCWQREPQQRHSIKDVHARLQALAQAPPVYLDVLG
Experimental: as §2

PRKCB2 = target: T1, PRKCB2 (Homo sapiens, UniProt P05771); settings: 10 µM, inhibitor
T1 construct: gene PRKCB; isoform beta2
T1 sequence (P05771 whole entry, canonical isoform): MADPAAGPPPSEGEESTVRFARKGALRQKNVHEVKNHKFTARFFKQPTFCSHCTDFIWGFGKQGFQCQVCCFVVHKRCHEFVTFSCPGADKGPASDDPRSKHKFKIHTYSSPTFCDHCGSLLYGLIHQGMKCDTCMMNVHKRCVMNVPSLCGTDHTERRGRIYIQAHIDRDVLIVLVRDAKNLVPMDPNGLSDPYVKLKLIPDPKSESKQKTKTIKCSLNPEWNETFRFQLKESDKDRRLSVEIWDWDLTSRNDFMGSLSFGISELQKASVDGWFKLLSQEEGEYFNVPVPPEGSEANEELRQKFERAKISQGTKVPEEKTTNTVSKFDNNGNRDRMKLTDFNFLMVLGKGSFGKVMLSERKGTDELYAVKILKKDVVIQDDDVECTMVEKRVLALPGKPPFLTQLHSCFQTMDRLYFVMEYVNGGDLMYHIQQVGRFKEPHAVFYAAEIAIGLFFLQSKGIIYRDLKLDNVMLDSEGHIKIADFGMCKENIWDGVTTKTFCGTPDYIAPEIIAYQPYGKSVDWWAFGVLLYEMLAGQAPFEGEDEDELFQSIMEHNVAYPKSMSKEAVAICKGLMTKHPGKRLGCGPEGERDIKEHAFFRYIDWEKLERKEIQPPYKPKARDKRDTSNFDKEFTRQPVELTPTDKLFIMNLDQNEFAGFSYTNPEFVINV
Experimental: as §2

PI4KA = PI4KA (Homo sapiens, UniProt P42356); settings: inhibitor
Experimental: as §2

SPHK1 = SPHK1 (Homo sapiens, UniProt Q9NYA1); settings: 10 µM, inhibitor
Method in brief: as §1

CHEK1 = target: T2, CHEK1 (Homo sapiens, UniProt O14757); settings: 10 µM, inhibitor
T2 sequence (O14757 1-476): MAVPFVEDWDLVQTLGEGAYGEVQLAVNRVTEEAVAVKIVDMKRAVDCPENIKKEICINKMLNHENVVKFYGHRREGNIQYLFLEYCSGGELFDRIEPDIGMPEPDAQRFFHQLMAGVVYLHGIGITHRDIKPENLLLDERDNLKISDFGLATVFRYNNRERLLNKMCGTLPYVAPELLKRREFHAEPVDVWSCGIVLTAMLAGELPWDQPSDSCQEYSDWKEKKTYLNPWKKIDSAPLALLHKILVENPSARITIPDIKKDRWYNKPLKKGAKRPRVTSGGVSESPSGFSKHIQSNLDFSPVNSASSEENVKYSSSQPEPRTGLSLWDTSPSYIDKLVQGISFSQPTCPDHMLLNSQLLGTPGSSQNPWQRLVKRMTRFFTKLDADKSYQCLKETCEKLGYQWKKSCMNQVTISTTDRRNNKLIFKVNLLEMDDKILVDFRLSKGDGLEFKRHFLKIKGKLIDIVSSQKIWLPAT
Experimental: as §2

AKT2 = AKT2 (Homo sapiens, UniProt P31751); settings: 10 µM, inhibitor
Chain of AKT2 (P31751 whole entry): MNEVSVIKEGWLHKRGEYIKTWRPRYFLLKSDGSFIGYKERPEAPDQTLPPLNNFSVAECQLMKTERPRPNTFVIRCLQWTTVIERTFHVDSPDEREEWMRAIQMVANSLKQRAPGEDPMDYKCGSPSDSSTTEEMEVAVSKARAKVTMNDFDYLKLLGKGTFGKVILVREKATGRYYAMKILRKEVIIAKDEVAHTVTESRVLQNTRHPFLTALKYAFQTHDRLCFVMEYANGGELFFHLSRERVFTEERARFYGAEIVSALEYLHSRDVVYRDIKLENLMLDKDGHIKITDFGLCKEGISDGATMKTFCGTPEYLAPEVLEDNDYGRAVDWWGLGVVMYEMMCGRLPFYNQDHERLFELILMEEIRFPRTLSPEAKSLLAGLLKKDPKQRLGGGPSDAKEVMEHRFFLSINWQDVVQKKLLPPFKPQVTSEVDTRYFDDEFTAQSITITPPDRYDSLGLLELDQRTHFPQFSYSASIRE
Method in brief: as §1

INSR = INSR (Homo sapiens, UniProt P06213); settings: 10 µM, inhibitor
Experimental: as §2

TAOK2 = target: T3, TAOK2 (Homo sapiens, UniProt Q9UL54); settings: 10 µM, inhibitor
T3 sequence (Q9UL54 1-1235): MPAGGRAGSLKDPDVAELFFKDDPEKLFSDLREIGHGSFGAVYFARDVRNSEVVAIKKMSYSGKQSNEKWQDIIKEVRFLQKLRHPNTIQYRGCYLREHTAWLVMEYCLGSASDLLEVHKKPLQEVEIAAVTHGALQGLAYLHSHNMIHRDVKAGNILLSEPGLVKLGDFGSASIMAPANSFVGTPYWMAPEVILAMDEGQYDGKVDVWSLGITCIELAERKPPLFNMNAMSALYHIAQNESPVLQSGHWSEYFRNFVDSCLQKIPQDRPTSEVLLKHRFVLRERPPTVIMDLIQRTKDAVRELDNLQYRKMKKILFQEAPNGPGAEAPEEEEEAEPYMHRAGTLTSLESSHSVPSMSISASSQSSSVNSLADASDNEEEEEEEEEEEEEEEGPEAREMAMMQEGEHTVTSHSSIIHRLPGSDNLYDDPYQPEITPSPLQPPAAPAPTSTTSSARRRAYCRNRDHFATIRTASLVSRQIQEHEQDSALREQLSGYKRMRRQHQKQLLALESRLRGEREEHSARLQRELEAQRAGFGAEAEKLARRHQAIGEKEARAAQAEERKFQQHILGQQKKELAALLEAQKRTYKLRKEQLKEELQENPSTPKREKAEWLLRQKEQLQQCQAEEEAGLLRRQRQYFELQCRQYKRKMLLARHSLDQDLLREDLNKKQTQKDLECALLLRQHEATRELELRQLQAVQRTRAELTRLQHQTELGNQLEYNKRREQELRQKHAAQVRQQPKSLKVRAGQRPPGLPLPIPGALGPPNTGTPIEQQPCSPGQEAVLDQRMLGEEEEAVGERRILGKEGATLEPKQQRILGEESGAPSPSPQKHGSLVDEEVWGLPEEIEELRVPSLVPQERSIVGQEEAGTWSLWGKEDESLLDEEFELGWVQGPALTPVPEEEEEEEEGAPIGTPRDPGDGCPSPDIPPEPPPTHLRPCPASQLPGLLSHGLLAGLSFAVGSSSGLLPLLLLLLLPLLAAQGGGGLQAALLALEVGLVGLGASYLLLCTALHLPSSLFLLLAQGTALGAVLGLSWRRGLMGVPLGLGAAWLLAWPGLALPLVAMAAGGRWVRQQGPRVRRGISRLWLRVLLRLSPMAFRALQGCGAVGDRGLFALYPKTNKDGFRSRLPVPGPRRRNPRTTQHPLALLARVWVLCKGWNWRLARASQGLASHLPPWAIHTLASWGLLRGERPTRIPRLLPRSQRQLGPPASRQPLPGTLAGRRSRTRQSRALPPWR
Experimental: as §2

[1] = target: T4, Phosphorylase B kinase gamma catalytic chain skeletal muscle isoform (Homo sapiens, UniProt Q16816); settings: 10 µM, inhibitor
T4 construct: gene PHKG1
Experimental: as §2

Chain of MAPK12 (P53778 whole entry): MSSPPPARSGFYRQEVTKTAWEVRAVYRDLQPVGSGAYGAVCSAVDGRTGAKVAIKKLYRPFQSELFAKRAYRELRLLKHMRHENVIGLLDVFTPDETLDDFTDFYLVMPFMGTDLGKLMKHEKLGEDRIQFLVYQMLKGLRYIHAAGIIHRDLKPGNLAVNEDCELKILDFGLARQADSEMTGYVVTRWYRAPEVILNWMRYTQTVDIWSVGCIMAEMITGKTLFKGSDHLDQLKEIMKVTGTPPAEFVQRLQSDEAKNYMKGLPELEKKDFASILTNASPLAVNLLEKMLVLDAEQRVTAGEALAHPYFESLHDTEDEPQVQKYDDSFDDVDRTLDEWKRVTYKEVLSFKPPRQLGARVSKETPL

## O=C(O)c1sc2cc(F)sc2c1Cl [PF-07208254, 3-chloro-5-fluorothieno[3,2-b]thiophene-2-carboxylic acid]
MAPK12
  ATP = Km % Inhibition PF-07208254: 13.3%
ROCK1
  ATP = 1 mM % Inhibition PF-07208254: 0.8%
  ATP = Km % Inhibition PF-07208254: 3.6%
TEK
  ATP = 1 mM % Inhibition PF-07208254: 0.7%
  ATP = Km % Inhibition PF-07208254: 0.3%
NTRK1
  ATP = 1 mM % Inhibition PF-07208254: 5.8%
  ATP = Km % Inhibition PF-07208254: 5.6%
PRKCB2
  ATP = 1 mM % Inhibition PF-07208254: 1.9%
  ATP = Km % Inhibition PF-07208254: -1.7%
PI4KA
  ATP = 10 uM % Inhibition PF-07208254: 8.2%
SPHK1
  ATP = Km % Inhibition PF-07208254: -15.9%
CHEK1
  ATP = 1 mM % Inhibition PF-07208254: 4.3%
  ATP = Km % Inhibition PF-07208254: 4.6%
AKT2
  ATP = Km % Inhibition PF-07208254: 0.2%
INSR
  ATP = 1 mM % Inhibition PF-07208254: 0.0%
  ATP = Km % Inhibition PF-07208254: 3.1%
TAOK2
  ATP = 1 mM % Inhibition PF-07208254: 1.4%
  ATP = Km % Inhibition PF-07208254: -2.5%
[1]
  ATP = Km % Inhibition PF-07208254: 1.8%

## CCC1(COc2ccc(-c3csc(-c4ccccc4C(=O)O)n3)cn2)CC1 [PF-07247685, 2-(4-{6-[(1-ethylcyclopropyl)methoxy]pyridin-3-yl}-1,3-thiazol-2-yl)benzoic acid]
MAPK12
  ATP = Km % Inhibition PF-07247685: 4.6%
ROCK1
  ATP = 1 mM % Inhibition PF-07247685: -0.9%
  ATP = Km % Inhibition PF-07247685: 2.4%
TEK
  ATP = 1 mM % Inhibition PF-07247685: 8.6%
  ATP = Km % Inhibition PF-07247685: 0.6%
NTRK1
  ATP = 1 mM % Inhibition PF-07247685: 10.0%
  ATP = Km % Inhibition PF-07247685: 14.5%
PRKCB2
  ATP = 1 mM % Inhibition PF-07247685: 4.0%
  ATP = Km % Inhibition PF-07247685: 9.4%
PI4KA
  ATP = 10 uM % Inhibition PF-07247685: -3.1%
SPHK1
  ATP = Km % Inhibition PF-07247685: -82.5%
CHEK1
  ATP = 1 mM % Inhibition PF-07247685: 4.5%
  ATP = Km % Inhibition PF-07247685: -3.1%
AKT2
  ATP = Km % Inhibition PF-07247685: 5.5%
INSR
  ATP = 1 mM % Inhibition PF-07247685: -0.4%
  ATP = Km % Inhibition PF-07247685: 3.4%
TAOK2
  ATP = 1 mM % Inhibition PF-07247685: -1.8%
  ATP = Km % Inhibition PF-07247685: -4.7%
[1]
  ATP = Km % Inhibition PF-07247685: 2.2%
